Assay results as given in patent publication US20220370406A1, “METHOD OF TREATING STIMULANT USE DISORDER USING A COMBINATION OF TOPIRAMATE AND PHENTERMINE” (University of Kentucky Research Foundation, priority 2019, published 2022).
Where two headings read alike, the source gives them in different places.

Experiments:
[1] = tested on: participants with cocaine use disorder; experiment: Experimental sessions: cardiovascular measures after cocaine sampling dose during maintenance; settings: maintenance on the drug alone
[2] = tested on: participants with cocaine use disorder; experiment: Experimental sessions: subjective effects questionnaires after cocaine sampling dose during maintenance; settings: for subjective effects of cocaine: maintenance on the drug alone; for cocaine-increased ratings of High, Like Drug, Active-Alert-Energetic, Rush and Stimulant Subscale: maintenance on topiramate and phentermine, alone or combined
[3] = tested on: participants with cocaine use disorder; experiment: Cocaine self-administration on progressive-ratio task during topiramate-phentermine maintenance; assay type: in vivo, human
Method: The maintenance period for each condition was at least seven (7) days. Participants randomized to 50 or 100 mg/day topiramate initially received 12.5 and 25 mg immediate release topiramate, respectively, twice daily (0700 and 1900 hours) for three (3) days. Participants then received their target dose (i.e., 25 and 50 mg BID, respectively) for four (4) days prior to completing the first block of experimental sessions. This dosing regimen allowed participants to acclimate to a lower topiramate dose before receiving their target dose and was the rationale for topiramate being a between-subject variable. Participants randomized to placebo were also maintained for seven (7) days to maintain the study blind, but their capsules contained only cornstarch.
Phentermine (0, 15, 30 mg) was administered once daily at 0700 hours. Within each topiramate cohort, the phentermine doses were tested in ascending order such that the lower dose (15 mg/day) was tested prior to the higher dose (30 mg/day). This dosing sequence was violated twice due to oversight (i.e., one subject in the 0 mg/day topiramate group and the other in the 50 mg/day topiramate group). Both of these participants were initially maintained on 30 mg/day phentermine.
After at least seven (7) days of maintenance on the first topiramate-phentermine condition, participants completed a block of three experimental sessions described below. Maintenance on the assigned condition continued during each block of experimental sessions. Upon completion of the first block of experimental sessions, participants continued maintenance on the assigned topiramate condition, while the phentermine dose was changed to the next condition. Maintenance on the second topiramate-phentermine condition also lasted at least seven (7) days before the next block of experimental sessions was completed. […]
The reinforcing effects of cocaine during maintenance on the topiramate-phentermine combinations were assessed using a progressive-ratio task. […]

[4] = tested on: participants with cocaine use disorder; settings: in vivo

SMILES | cardiovascular effects of cocaine [1] | subjective effects of cocaine [2] | cocaine-increased ratings of High, Like Drug, Active-Alert-Energetic, Rush and Stimulant Subscale [2] | cocaine self-administration ([3]; Phentermine alone) | reinforcing effects of cocaine ([3]; maintenance on the drug alone) | cardiovascular effects of cocaine [4] | reduction of cocaine self-administration ([3]; cocaine 40 mg, Topiramate alone (100 mg/day)) [%]
CC(C)(N)Cc1ccccc1 [phentermine] | did not significantly alter | did not significantly alter | did not significantly alter | did not significantly reduce | did not significantly alter |  | 
CC1(C)O[C@@H]2[C@@H](CO[C@@]3(COS(N)(=O)=O)OC(C)(C)O[C@@H]23)O1 [topiramate] |  | did not alter | did not significantly alter |  |  | did not alter | 47
